In paper PMC4786998 (Journal of Hematology & Oncology, 2016):
Like-named read-outs stand apart in the source and are kept apart here.

Experiments:
[1] = target: wild-type ALK kinase domain; details: cited from earlier work
L1196M ALK kinase domain = details: cited from earlier work
[2] = Electrocardiogram QTcF in phase I patients; details: 325-mg dose
Method: The safety and tolerability of […] were assessed by adverse events (AEs) (graded based on NCI-CTCAE v4.03), laboratory tests, vital signs, electrocardiograms, and clinical observations.

[3] = Phase I safety/tolerability (adverse events, DLT, MTD) in patients with advanced solid tumors
Method: The study was divided into two parts: dose escalation and dose expansion. Dose escalation used a traditional 3 + 3 dose-escalation design. […] The first patient in each dose-escalation cohort was evaluated for dose-limiting toxicities (DLTs) in cycle 1, day 4. If no DLTs were reported by the investigator, the remaining patients in the cohort were enrolled. […] The protocol allowed that and subsequent doses to be expanded to enroll an additional three patients who were known to have tumors tested positive for ALK abnormalities once safety was established in the first three subjects for that cohort.

[4] = tested on: panel of 86 tyrosine kinases; details: 1 μmol/L; cited from earlier work
[5] = Plasma pharmacokinetics in phase I patients; assay type: in vivo, human; details: for AUC: read-out: AUC24
Method: On day 1, the following PK parameters were assessed for […]: area under the plasma concentration-time curve (AUC24), AUClast, maximum concentration observed (Cmax), and time of maximum concentration observed (tmax). On day 28, [NT], Cmax, Ctrough, tmax, CL/F, Vz/F, and t1⁄2, calculated based on the ratio of accumulation for AUC (day 28 AUCtau/day 1 AUC24) (Rac [AUC]), were assessed. Cumulative effects on steady-state […] plasma levels were assessed by comparing Ctrough on day 28 divided by Ctrough on days 8, 15, and 22. For continuous variables, descriptive statistics included the number of patients, mean (standard deviation), median, and range. For antitumor assessments, the number and percentage (95 % CI) of patients with CR, PR, SD, and PD were summarized. The overall best tumor response was also summarized. For the objective response rates, the exact confidence interval of response was calculated only for the dose-expansion cohort using the Clopper-Pearson method. For continuous PK parameters, the coefficient of variation was calculated. For Cmax and AUC, geometric mean was calculated. All data processing and analyses were performed using SAS® Version 9.1.3 or higher. The safety analysis set was defined as patients who received at least one […] dose. The PK analysis set was defined as patients who received at least one dose of […] and provided the values of drug concentrations for at least one time point.

[6] = tested on: wild-type ALK and EML4-ALK L1196M xenograft tumors; details: mice, subcutaneous and intracranial xenografts, compared with crizotinib; cited from earlier work
[7] = tested on: crizotinib-resistant ALK-positive tumors; assay: Antitumor response by RECIST v1.1 in the dose-expansion cohort; assay type: in vivo, human
Text: Solid tumor assessment was based on Response Evaluation Criteria in Solid Tumors (RECIST) v1.1. For target lesions, complete response (CR) was defined as disappearance of all target lesions and pathologic lymph nodes with a reduction in short axis to <10 mm. Partial response (PR) was defined as a ≥30 % decrease in the sum of diameters of the target lesions, taking as reference the baseline sum of diameters. Progressive disease (PD) was defined as a ≥20 % increase in the sum of diameters from the smallest sum on the study and the sum of diameters to be ≥5 mm from the smallest sum on study. Stable disease (SD) was defined as neither PR nor PD.
For patients in the dose-expansion cohort with evaluable tumor diameter, the best tumor reduction was calculated as the decrease from baseline in the sum of the target lesions.
For continuous variables, descriptive statistics included the number of patients, mean (standard deviation), median, and range. For antitumor assessments, the number and percentage (95 % CI) of patients with CR, PR, SD, and PD were summarized. The overall best tumor response was also summarized. For the objective response rates, the exact confidence interval of response was calculated only for the dose-expansion cohort using the Clopper–Pearson method. For continuous PK parameters, the coefficient of variation was calculated. For Cmax and AUC, geometric mean was calculated. All data processing and analyses were performed using SAS® Version 9.1.3 or higher.

[8] = human, plasma, oral, 25 mg, cycle 1, day 1, 25 mg once daily, dose-escalation cohort, n = 4, mean (standard deviation)
[9] = human, plasma, oral, 25 mg, cycle 1, day 28, 25 mg once daily, dose-escalation cohort, n = 3, mean (standard deviation)
[10] = human, plasma, oral, 50 mg, cycle 1, day 1, 50 mg once daily, dose-escalation cohort, n = 3, mean (standard deviation)
[11] = human, plasma, oral, 50 mg, cycle 1, day 28, 50 mg once daily, dose-escalation cohort, n = 3, mean (standard deviation)
[12] = human, plasma, oral, 75 mg, cycle 1, day 1, 75 mg once daily, dose-escalation cohort, n = 3, mean (standard deviation)
[13] = human, plasma, oral, 75 mg, cycle 1, day 28, 75 mg once daily, dose-escalation cohort, n = 3, mean (standard deviation)
[14] = human, plasma, oral, 125 mg, cycle 1, day 1, 125 mg once daily, dose-escalation cohort, n = 4, mean (standard deviation)
[15] = human, plasma, oral, 125 mg, cycle 1, day 28, 125 mg once daily, dose-escalation cohort, n = 1
[16] = human, plasma, oral, 200 mg once daily, cycle 1, day 28, 200 mg once daily, dose-escalation cohort, n = 3, mean (standard deviation)
[17] = human, plasma, oral, 200 mg, cycle 1, day 1, 200 mg once daily, dose-escalation cohort, n = 4, mean (standard deviation)
[18] = human, plasma, oral, 325 mg once daily, cycle 1, day 28, 325 mg once daily, dose-escalation cohort, n = 3, mean (standard deviation)
[19] = human, plasma, oral, 325 mg, cycle 1, day 1, 325 mg once daily, dose-escalation cohort, n = 3, mean (standard deviation)
[20] = human, plasma, oral, 800 mg, cycle 1, day 1, 800 mg once daily, dose-escalation cohort, n = 3, mean (standard deviation)
[21] = human, plasma, oral, 800 mg, cycle 1, day 28, 800 mg once daily, dose-escalation cohort, n = 1
[22] = expansion cohort, 525 mg, n = 16

**Q.** What does the source list for `COc1cc(N2CCC(N3CCN(C)CC3)CC2)ccc1Nc1ncnc(Nc2ccccc2S(=O)(=O)C(C)C)n1` [ASP3026]?
**A.** IC50 [1]: 10 nM; IC50 (L1196M ALK kinase domain): 32 nM; QTcF, mean (standard deviation) maximal increase [2]: 47.0 (10.7) ms; deaths on study ([3]; all due to PD, not related to the study drug): three; changes in clinical laboratory parameters or vital signs over time ([3]; human, in vivo): no meaningful changes; treatment-related adverse event: fatigue ([3]; human, in vivo): 35%; treatment-related adverse event: nausea ([3]; human, in vivo): 38%; treatment-related adverse event: vomiting ([3]; human, in vivo): 35%; dose-limiting toxicities observed ([3]; human, in vivo, 28 days): Grade 3 rash and elevated transaminase concentrations; number of tyrosine kinases inhibited by more than 50 % [4]: 11; slope estimate (95 % CI) of dose-normalized AUClast versus dose ([5]; human, in vivo): 0.090 (−0.097, 0.277); slope estimate (95 % CI) of dose-normalized Cmax versus dose ([5]; human, in vivo): 0.170 (−0.018, 0.358); t ½ ([5]; human, in vivo): 24.9 (12.7) h; time to steady-state plasma concentrations ([5]; human, in vivo): ≤ 8 days; half-life ([5]; human, in vivo, accumulation half-life, mean (standard deviation)): 25 h; half-life ([5]; human, in vivo, half-life, range): 22 to 85 h; half-life ([5]; human, in vivo, median half-life): 35 h; Tmax ([5]; human, in vivo, po, tmax): ~3 h; Tmax ([5]; human, in vivo, t max): 4 h; half-life ([5]; human, in vivo, t ½): 27.3 h; Cmax [5, 8]: 32 ng/mL; AUC [5, 8]: 378 ng·h/mL; Tmax ([5]; human, plasma, oral, 25 mg, cycle 1, day 1, 25 mg once daily, dose-escalation cohort, n = 4, median (range), read-out: t max): 3 h; Cmax [5, 9]: 68.4 ng/mL; half-life ([5]; human, plasma, oral, 25 mg, cycle 1, day 28, 25 mg once daily, dose-escalation cohort, n = 3, mean (standard deviation), calculated from accumulation ratio, read-out: t ½ (converted)): 36.6 h; AUC [5, 9]: 1040 ng·h/mL; Tmax ([5]; human, plasma, oral, 25 mg, cycle 1, day 28, 25 mg once daily, dose-escalation cohort, n = 3, median (range), read-out: t max): 3 h; Cmax [5, 10]: 99.7 ng/mL; AUC [5, 10]: 846 ng·h/mL; Tmax ([5]; human, plasma, oral, 50 mg, cycle 1, day 1, 50 mg once daily, dose-escalation cohort, n = 3, median (range), read-out: t max): 3 h; Cmax [5, 11]: 143 ng/mL; half-life ([5]; human, plasma, oral, 50 mg, cycle 1, day 28, 50 mg once daily, dose-escalation cohort, n = 3, mean (standard deviation), calculated from accumulation ratio, read-out: t ½ (converted)): 35.2 h; AUC [5, 11]: 2110 ng·h/mL; Tmax ([5]; human, plasma, oral, 50 mg, cycle 1, day 28, 50 mg once daily, dose-escalation cohort, n = 3, median (range), read-out: t max): 3 h; Cmax [5, 12]: 87.6 ng/mL; AUC [5, 12]: 1160 ng·h/mL; Tmax ([5]; human, plasma, oral, 75 mg, cycle 1, day 1, 75 mg once daily, dose-escalation cohort, n = 3, median (range), read-out: t max): 8.2 h; Cmax [5, 13]: 352 ng/mL; half-life ([5]; human, plasma, oral, 75 mg, cycle 1, day 28, 75 mg once daily, dose-escalation cohort, n = 3, mean (standard deviation), calculated from accumulation ratio, read-out: t ½ (converted)): 84.7 h; AUC [5, 13]: 5630 ng·h/mL; Tmax ([5]; human, plasma, oral, 75 mg, cycle 1, day 28, 75 mg once daily, dose-escalation cohort, n = 3, median (range), read-out: t max): 3 h; Cmax [5, 14]: 262 ng/mL; AUC [5, 14]: 3000 ng·h/mL; Tmax ([5]; human, plasma, oral, 125 mg, cycle 1, day 1, 125 mg once daily, dose-escalation cohort, n = 4, median (range), read-out: t max): 5 h; Cmax [5, 15]: 668 ng/mL; half-life ([5]; human, plasma, oral, 125 mg, cycle 1, day 28, 125 mg once daily, dose-escalation cohort, n = 1, calculated from accumulation ratio, read-out: t ½ (converted)): 36.7 h; AUC [5, 15]: 8970 ng·h/mL; Tmax ([5]; human, plasma, oral, 125 mg, cycle 1, day 28, 125 mg once daily, dose-escalation cohort, n = 1, read-out: t max): 2.1 h; Cmax [5, 16]: 682 ng/mL; half-life ([5]; human, plasma, oral, 200 mg once daily, cycle 1, day 28, 200 mg once daily, dose-escalation cohort, n = 3, mean (standard deviation), calculated from accumulation ratio, read-out: t ½ (converted)): 21.9 h; AUC [5, 16]: 7620 ng·h/mL; Tmax ([5]; human, plasma, oral, 200 mg once daily, cycle 1, day 28, 200 mg once daily, dose-escalation cohort, n = 3, median (range), read-out: t max): 3 h; Cmax [5, 17]: 490 ng/mL; AUC [5, 17]: 4580 ng·h/mL; Tmax ([5]; human, plasma, oral, 200 mg, cycle 1, day 1, 200 mg once daily, dose-escalation cohort, n = 4, median (range), read-out: t max): 2.5 h; Cmax [5, 18]: 1160 ng/mL; half-life ([5]; human, plasma, oral, 325 mg once daily, cycle 1, day 28, 325 mg once daily, dose-escalation cohort, n = 3, mean (standard deviation), calculated from accumulation ratio, read-out: t ½ (converted)): 26.3 h; AUC [5, 18]: 18800 ng·h/mL; Tmax ([5]; human, plasma, oral, 325 mg once daily, cycle 1, day 28, 325 mg once daily, dose-escalation cohort, n = 3, median (range), read-out: t max): 4 h; Cmax [5, 19]: 586 ng/mL; AUC [5, 19]: 7950 ng·h/mL; Tmax ([5]; human, plasma, oral, 325 mg, cycle 1, day 1, 325 mg once daily, dose-escalation cohort, n = 3, median (range), read-out: t max): 3 h; Cmax [5, 20]: 1630 ng/mL; AUC [5, 20]: 21800 ng·h/mL; Tmax ([5]; human, plasma, oral, 800 mg, cycle 1, day 1, 800 mg once daily, dose-escalation cohort, n = 3, median (range), read-out: t max): 3 h; Cmax [5, 21]: 4850 ng/mL; half-life ([5]; human, plasma, oral, 800 mg, cycle 1, day 28, 800 mg once daily, dose-escalation cohort, n = 1, calculated from accumulation ratio, read-out: t ½ (converted)): 37.9 h; AUC [5, 21]: 78100 ng·h/mL; Tmax ([5]; human, plasma, oral, 800 mg, cycle 1, day 28, 800 mg once daily, dose-escalation cohort, n = 1, read-out: t max): 4 h; linearity and dose proportionality of exposure (Cmax and AUClast) ([5]; multiple dosing (day 28), 25- to 800-mg dose range): both linear and dose-proportional exposure; antitumor activity in xenograft tumors [6]: potent antitumor activity; best overall response: stable disease rate ([7]; 525 mg, 16 crizotinib-resistant ALK-positive patients): 44%; best overall response: partial response rate ([7]; 525 mg, 16 crizotinib-resistant ALK-positive patients (15 NSCLC, 1 neuroblastoma)): 50%; objective (overall) response rate (CR + PR) ([7]; 525 mg, 16 crizotinib-resistant ALK-positive patients, 95 % CI 25–75 %): 50%; stable disease rate ([7]; 525 mg, restricted to ALK-positive NSCLC patients, 6/15): 40%; partial response rate ([7]; 525 mg, restricted to ALK-positive NSCLC patients, 8/15): 53%; median progression-free survival ([7]; ALK-positive patients, 95 % CI 4–9): 6 months; duration of response, range ([7]; dose-expansion cohort, 525 mg): 27 to 338 days; Best overall response: complete response [7, 22]: 0 n (%); Best overall response: partial response [7, 22]: 8 (50) n (%); Best overall response: progressive disease [7, 22]: 0 n (%); Best overall response: stable disease [7, 22]: 7 (44) n (%); Best overall response: unable to evaluate [7, 22]: 1 (6) n (%); Objective response (complete response + partial response) ([7]; expansion cohort, 525 mg, n = 16, 95 % CI 25–75 %): 8 (50) n (%)
